Patent publication US4230725A, “Antiviral agent” (Sumitomo Chemical Company, Limited, priority 1977, dated 1980)
Counter-ions that a name gives are not always drawn. Like-named read-outs stand apart in the source and are kept apart here.

Key:
[1] = system: herpes simplex virus type I (HF strain); experiment: Effect on the growth of herpes virus in tissue cultures (tube dilution method); type: cell-based; settings: for MIC: read-out: MIC (minimum virus growth inhibitory concentration); for MIC (minimum virus growth inhibitory concentration): host cells KB
Experimental: The antiviral activity was examined by the tube dilution method. HeLa cells and KB cells for the assay were cultured in YLE medium and Eagle MEM medium in vitro, respectively, containing 10% fetal calf serum. After the cells were grown in a monolayer form, the medium was exchanged to the fresh medium supplemented with 2% fetal calf serum, and then about 1000 TCD50 of herpes simplex virus type I (HF strain) and the test compound were added. After 72 hours' incubation at 37° C., the cytotoxicity of the compound and the virus induced cytopathic effect (CPE) were observed microscopically.
The antiviral activity was expressed in minimum virus growth inhibitory concentration (MIC) and minimum cytotoxic concentration (MCC) in Table 1.

Influenza Ao PR/8 = type: in vivo, ddY male mice; settings: 7 days after infection, dose 0: 4.8
in vitro [2] = settings: human, hela cells
in vitro [3] = settings: human, kb cells
eyes of a rabbit = experiment: Herpes keratitis in rabbit: toxicity control eyes (scratched, not infected); type: in vivo; settings: 0.5% eye lotion
Experimental: After 2% cocaine was applied to the eyes of a rabbit anesthetized with barbital, the corneal epithelium of each eye was scratched and infected with herpes simplex virus type I (HF strain).
The treatment with the compound A was carried out as follows: Twelve hours after virus infection, 0.5% eye lotion of the compound A in 1.4% polyvinyl alcohol was applied every two hours, five times a day during seven days.
For seven days after infection, the lesions on the conjunctiva, cornea and iris were daily observed visually prior to the first treatment and recorded according to the scoring method.
Separately from this, eyes of a rabbit were scratched but not infected with virus, one of the eyes was similarly treated with the compound A and the other eye was treated with 1.4% polyvinyl alcohol as toxicity control.

[4] = system: herpes simplex virus type I (HF strain); experiment: Therapeutic effect on herpes encephalitis in mice; type: in vivo; settings: for Survival ratio: 21st day, untreated 0/10; for Mean survival term: 21 days
Experimental: Mice were anesthetized with ether and were infected intracerebrally […] with about 30 LD50 of herpes simplex virus type I (HF strain). The infected mice were administered with the compound A according to various therapeutic schedules. The therapeutic effects of the compound A were examined on the basis of the survival ratios at the 3rd week after virus infection and the mean survival days.
^a Dose of administration
^b Administration schedule of each route was as follows:
i.c. (intracerebrally): Single administration simultaneously with virus
p.o. (per os): Two administrations per day during 8.5 days from 4 hours
s.c. (subcutaneously): Two administrations per day during 8.5 days from 4
hours after virus infection.
i.v. (intravenously): Single administration 3 hours after virus infection
^c The animals were examined for 21 days after infection, and mean
survival term was determined.
^d Survival ratio on the 21st day after virus infection.

[5] = system: herpes and influenza viruses; experiment: Antiviral activity, overall statement; settings: against herpes and influenza viruses; in vivo as well as in vitro
Acute toxicity in mice = settings: mouse, in vivo
[6] = about 1000 TCD50, 72 hours at 37° C.

In the case of NC12CC3CC(CC(C3)C1)C2 [Amantadine hydrochloride, reference compound], the MIC ([1]; 72 h) is reported as 50 µg/mL, the “MIC (minimum virus growth inhibitory concentration)” value [1, 6] is reported as 50 µg/mL and the “Lung Lesion Score” value (Influenza Ao PR/8; 10 mg/kg subcutaneous, *P < 0.05) is reported as 4.3. For the same compound, the “Lung Lesion Score” value (Influenza Ao PR/8; 25 mg/kg subcutaneous, *P < 0.05) was 4.1, the “Lung Lesion Score” value (Influenza Ao PR/8; 50 mg/kg subcutaneous, *P < 0.05) was 4.0 and the MCC at 72 h (in vitro [2]) was over 50 µg/mL. The MCC at 72 h (in vitro [3]) was over 50 µg/mL.
In the case of Cl.NC12CCCC(C1)C1CCC2C1 (stereo not drawn) [Compound A, 1-Amino-2,4-ethanobicyclo[3,3,1]nonane hydrochloride], the MIC ([1]; host cells HeLa, about 1000 TCD50, 72 hours at 37° C.) is reported as 2.5 µg/mL, the “MIC (minimum virus growth inhibitory concentration)” value [1, 6] is reported as 2.5 µg/mL and the “effect on cure period as compared with the toxicity control” value (eyes of a rabbit; five times a day during seven days, scratched uninfected rabbit eyes) is reported as “did not prolong the cure period”. The “toxicity of the eye lotion” value (eyes of a rabbit; rabbit eyes) was “no toxicity”, the Survival ratio ([4]; 5 mg/kg i.c., single administration simultaneously with virus infection) was 6/10 and the Mean survival term ([4]; 5 mg/kg i.c., single administration simultaneously with virus infection, untreated 5.7) was 8.3 days. For the same compound, the Survival ratio ([4]; 10 mg/kg i.v., single administration 3 hours after infection) was 4/10, the Mean survival term ([4]; 10 mg/kg i.v., single administration 3 hours after infection, untreated 5.8) was 8.1 days and the Survival ratio ([4]; 100 mg/kg p.o., two per day during 8.5 days from 4 hours after infection) was 4/10. The Mean survival term ([4]; 100 mg/kg p.o., two per day during 8.5 days from 4 hours after infection, untreated 5.5) was 7.7 days, the Survival ratio ([4]; 100 mg/kg s.c., two per day during 8.5 days from 4 hours after infection) was 5/10 and the Mean survival term ([4]; 100 mg/kg s.c., two per day during 8.5 days from 4 hours after infection, untreated 5.7) was 7.6 days. For the same compound, the “Lung Lesion Score” value (Influenza Ao PR/8; 7.5 mg/kg subcutaneous, no asterisk) was 4.4, the “Lung Lesion Score” value (Influenza Ao PR/8; 15 mg/kg subcutaneous, *P < 0.05) was 4.2 and the “Lung Lesion Score” value (Influenza Ao PR/8; 30 mg/kg subcutaneous, *P < 0.05) was 4.0. The antiviral activity [5] was “very strong antiviral activity”, the MCC at 72 h (in vitro [2]) was 100 µg/mL and the MCC at 72 h (in vitro [3]) was 100 µg/mL. It also gave an LD50 (Acute toxicity in mice; iv) of 58 mg/kg and an LD50 (Acute toxicity in mice; po) of 320 mg/kg.
